Reference: patent US12258327B2, “5-membered heteroaryl-containing aminopyridine compounds as EGFR inhibitors” (YUHAN CORPORATION, priority 2021, dated 2025)
Where two headings read alike, the source gives them in different places.

Assays:
EGFR del19/T790M/C797S = EGFR del19/T790M/C797S (Homo sapiens, UniProt P00533, C797S/DEL746-750/T790M); assay: Biochemical EGFR kinase assay (Lance Ultra TR-FRET), triple mutant del19/T790M/C797S
Procedure, shortened: (§1)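 Step 1: compound in kinase buffer, 0.003–10 μM. Step 2: kinase reaction 1 h at room temperature. Step 4: TR-FRET read at 615/665 nm; IC50 calculated.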

EGFR L858R/T790M/C797S = EGFR L858R/T790M/C797S (Homo sapiens, UniProt P00533, C797S/L858R/T790M); assay: Biochemical EGFR kinase assay (Lance Ultra TR-FRET), triple mutant L858R/T790M/C797S
Procedure, shortened: as §1

EGFR del19/C797S = EGFR del19/C797S (Homo sapiens, UniProt P00533, C797S/DEL746-750); assay: Biochemical EGFR kinase assay (Lance Ultra TR-FRET), double mutant del19/C797S
Procedure, shortened: as §1

EGFR L858R/C797S = EGFR L858R/C797S (Homo sapiens, UniProt P00533, C797S/L858R); assay: Biochemical EGFR kinase assay (Lance Ultra TR-FRET), double mutant L858R/C797S
Procedure, shortened: as §1

EGFR wildtype (WT) = EGFR wildtype (WT) (Homo sapiens, UniProt P00533); assay: Biochemical EGFR kinase assay (Lance Ultra TR-FRET), wildtype
Procedure, shortened: as §1

[1] = IC50 del19/T790M/C797S (nM) 100 μM ATP, 100 μM ATP
[2] = Km ATP, read-out: IC50 del19/T790M/C797S (nM) Km ATP
[3] = IC50 L858R/T790M/C797S (nM) 100 μM ATP, 100 μM ATP
[4] = Km ATP, read-out: IC50 L858R/T790M/C797S (nM) Km ATP
[5] = IC50 del19/C797S (nM) 100 μM ATP, 100 μM ATP
[6] = Km ATP, read-out: IC50 del19/C797S (nM) Km ATP
[7] = IC50 L858R/C797S (nM) 100 μM ATP, 100 μM ATP
[8] = Km ATP, read-out: IC50 L858R/C797S (nM) Km ATP
[9] = IC50 WT (nM) 100 μM ATP, 100 μM ATP
[10] = Km ATP, read-out: IC50 WT (nM) Km ATP
[11] = Km ATP, read-out: IC50 del19/T790M/C797S, Km ATP
[12] = Km ATP, read-out: IC50 L858R/T790M/C797S, Km ATP
[13] = Km ATP, read-out: IC50 del19/C797S, Km ATP
[14] = Km ATP, read-out: IC50 L858R/C797S, Km ATP
[15] = Km ATP, read-out: IC50 WT, Km ATP

EGFR wildtype (WT), sequence (P00533 25-1210): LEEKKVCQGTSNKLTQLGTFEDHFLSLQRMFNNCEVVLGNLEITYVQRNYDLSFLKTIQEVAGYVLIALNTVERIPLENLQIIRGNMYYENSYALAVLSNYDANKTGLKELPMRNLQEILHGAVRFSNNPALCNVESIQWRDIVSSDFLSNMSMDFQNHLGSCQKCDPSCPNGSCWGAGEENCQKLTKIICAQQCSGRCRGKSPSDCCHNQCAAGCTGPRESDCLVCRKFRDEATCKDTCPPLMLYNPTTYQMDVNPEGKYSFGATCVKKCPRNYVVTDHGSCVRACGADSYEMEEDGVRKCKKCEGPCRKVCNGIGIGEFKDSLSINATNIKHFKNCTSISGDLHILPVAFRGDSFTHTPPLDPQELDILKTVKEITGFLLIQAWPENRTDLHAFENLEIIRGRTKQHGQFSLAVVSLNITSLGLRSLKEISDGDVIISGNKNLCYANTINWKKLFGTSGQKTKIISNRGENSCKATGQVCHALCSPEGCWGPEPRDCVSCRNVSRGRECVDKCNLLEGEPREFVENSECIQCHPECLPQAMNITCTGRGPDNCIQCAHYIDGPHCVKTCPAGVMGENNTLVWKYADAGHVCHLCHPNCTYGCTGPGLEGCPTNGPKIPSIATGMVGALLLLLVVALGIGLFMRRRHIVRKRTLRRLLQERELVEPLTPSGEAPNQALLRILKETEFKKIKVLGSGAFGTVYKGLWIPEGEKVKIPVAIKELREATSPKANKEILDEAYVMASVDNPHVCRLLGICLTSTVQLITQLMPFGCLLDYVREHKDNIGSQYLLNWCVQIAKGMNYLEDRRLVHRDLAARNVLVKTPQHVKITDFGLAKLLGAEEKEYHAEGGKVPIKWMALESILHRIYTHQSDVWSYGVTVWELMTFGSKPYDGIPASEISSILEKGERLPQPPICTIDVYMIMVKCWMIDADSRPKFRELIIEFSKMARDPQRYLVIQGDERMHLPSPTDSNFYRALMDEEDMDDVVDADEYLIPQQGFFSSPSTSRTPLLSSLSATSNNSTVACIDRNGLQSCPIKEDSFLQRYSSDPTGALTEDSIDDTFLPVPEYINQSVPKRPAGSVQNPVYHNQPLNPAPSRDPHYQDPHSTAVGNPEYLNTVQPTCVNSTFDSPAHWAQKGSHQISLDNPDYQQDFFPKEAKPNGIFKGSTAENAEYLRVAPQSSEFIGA
EGFR del19/T790M/C797S, sequence (P00533 with tags, fused parts or gaps DEL746-750/T790M/C797S): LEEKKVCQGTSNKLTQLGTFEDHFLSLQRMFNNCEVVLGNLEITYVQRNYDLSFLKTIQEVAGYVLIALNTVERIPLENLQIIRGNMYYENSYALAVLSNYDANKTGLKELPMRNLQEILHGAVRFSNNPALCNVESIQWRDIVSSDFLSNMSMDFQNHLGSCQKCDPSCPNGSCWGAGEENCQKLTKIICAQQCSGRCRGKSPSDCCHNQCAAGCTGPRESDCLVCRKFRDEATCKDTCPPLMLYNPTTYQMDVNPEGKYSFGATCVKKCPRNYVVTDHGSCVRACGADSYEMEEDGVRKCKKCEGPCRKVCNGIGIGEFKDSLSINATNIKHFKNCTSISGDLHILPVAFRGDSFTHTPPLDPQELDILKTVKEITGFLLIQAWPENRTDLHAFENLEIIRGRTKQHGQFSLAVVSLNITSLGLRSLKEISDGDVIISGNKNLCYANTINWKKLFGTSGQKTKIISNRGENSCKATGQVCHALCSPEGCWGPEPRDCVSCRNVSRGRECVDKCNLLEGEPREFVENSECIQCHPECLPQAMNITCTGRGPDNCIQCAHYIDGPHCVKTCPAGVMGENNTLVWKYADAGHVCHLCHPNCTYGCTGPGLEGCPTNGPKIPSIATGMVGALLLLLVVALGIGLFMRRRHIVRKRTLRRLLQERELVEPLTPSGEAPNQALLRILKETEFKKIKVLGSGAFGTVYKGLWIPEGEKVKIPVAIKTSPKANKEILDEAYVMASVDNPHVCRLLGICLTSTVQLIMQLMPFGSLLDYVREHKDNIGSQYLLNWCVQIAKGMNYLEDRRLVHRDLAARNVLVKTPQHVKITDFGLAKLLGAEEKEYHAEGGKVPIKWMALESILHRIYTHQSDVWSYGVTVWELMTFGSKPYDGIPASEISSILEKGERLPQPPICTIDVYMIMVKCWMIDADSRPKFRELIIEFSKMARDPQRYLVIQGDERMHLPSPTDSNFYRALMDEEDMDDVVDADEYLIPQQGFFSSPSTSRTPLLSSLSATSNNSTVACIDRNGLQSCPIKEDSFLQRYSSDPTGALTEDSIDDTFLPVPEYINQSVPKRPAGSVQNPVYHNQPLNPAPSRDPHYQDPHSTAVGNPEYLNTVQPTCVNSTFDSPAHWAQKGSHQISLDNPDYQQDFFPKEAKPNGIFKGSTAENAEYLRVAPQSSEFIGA
EGFR L858R/C797S, sequence (P00533 25-1210 C797S/L858R): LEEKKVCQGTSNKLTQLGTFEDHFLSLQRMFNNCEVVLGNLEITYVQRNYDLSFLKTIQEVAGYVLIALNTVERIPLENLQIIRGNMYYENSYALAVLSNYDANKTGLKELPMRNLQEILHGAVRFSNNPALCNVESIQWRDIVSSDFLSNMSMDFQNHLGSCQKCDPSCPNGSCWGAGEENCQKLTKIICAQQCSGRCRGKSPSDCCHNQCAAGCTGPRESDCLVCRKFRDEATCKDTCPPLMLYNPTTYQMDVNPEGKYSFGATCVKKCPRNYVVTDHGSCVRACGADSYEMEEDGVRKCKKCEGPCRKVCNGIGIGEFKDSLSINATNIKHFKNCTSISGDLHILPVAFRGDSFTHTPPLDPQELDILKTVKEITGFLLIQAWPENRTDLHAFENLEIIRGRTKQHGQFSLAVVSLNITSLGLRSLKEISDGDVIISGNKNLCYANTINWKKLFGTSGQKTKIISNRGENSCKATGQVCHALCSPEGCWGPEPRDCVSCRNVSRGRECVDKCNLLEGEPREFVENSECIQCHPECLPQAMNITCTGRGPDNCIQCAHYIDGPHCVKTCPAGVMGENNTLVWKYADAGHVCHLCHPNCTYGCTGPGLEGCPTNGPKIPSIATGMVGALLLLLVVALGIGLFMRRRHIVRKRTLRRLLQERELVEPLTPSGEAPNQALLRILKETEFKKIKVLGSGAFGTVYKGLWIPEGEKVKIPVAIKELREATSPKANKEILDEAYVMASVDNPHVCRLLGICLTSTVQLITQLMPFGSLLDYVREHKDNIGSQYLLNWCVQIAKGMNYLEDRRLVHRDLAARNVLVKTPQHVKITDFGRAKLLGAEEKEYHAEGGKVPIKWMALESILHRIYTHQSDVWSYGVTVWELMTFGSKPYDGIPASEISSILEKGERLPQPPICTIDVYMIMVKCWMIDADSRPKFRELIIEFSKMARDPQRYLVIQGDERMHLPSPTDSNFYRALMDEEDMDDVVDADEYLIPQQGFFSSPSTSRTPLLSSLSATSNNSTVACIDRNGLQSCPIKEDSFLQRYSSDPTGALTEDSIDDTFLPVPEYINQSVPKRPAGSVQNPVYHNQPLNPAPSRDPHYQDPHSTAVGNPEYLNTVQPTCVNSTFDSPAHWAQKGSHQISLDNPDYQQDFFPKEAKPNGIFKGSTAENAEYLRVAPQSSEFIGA
EGFR L858R/T790M/C797S, sequence (P00533 25-1210 T790M/C797S/L858R): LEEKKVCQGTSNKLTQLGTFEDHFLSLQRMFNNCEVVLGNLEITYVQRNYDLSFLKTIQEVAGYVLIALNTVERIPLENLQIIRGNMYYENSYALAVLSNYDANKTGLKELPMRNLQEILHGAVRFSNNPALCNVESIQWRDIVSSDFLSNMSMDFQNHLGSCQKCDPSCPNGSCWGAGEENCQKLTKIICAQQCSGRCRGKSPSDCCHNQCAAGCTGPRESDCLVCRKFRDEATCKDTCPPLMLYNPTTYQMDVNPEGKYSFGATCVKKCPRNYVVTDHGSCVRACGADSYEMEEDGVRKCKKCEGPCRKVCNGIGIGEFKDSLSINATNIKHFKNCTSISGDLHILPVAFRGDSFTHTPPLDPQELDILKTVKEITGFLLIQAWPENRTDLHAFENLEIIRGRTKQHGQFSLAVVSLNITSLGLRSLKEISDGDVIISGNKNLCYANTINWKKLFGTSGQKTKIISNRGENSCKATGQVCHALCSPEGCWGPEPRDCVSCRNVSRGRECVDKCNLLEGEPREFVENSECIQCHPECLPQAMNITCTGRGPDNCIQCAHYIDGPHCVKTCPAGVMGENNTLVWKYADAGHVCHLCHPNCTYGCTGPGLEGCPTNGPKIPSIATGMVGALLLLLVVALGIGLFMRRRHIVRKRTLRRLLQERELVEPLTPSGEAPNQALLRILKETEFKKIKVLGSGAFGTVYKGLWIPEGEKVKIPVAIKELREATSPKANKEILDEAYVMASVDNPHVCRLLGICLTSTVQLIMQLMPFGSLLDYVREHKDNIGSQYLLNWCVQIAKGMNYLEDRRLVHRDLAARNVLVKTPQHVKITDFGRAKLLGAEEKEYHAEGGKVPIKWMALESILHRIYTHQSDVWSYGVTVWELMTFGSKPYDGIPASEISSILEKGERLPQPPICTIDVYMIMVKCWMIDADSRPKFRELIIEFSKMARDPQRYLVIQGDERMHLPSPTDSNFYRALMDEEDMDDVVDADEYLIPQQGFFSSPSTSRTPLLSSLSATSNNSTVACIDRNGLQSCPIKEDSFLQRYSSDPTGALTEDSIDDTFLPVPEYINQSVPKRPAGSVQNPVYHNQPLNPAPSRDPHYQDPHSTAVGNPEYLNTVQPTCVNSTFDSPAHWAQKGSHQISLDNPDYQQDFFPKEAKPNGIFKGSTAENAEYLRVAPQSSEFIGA

Row | SMILES | IC50 (EGFR del19/T790M/C797S; [1]) | IC50 (EGFR del19/T790M/C797S; [2]) | IC50 (EGFR L858R/T790M/C797S; [3]) | IC50 (EGFR L858R/T790M/C797S; [4]) | IC50 (EGFR del19/C797S; [5]) | IC50 (EGFR del19/C797S; [6]) | IC50 (EGFR L858R/C797S; [7]) | IC50 (EGFR L858R/C797S; [8]) | IC50 (EGFR wildtype (WT); [9]) | IC50 (EGFR wildtype (WT); [10]) | IC50 (EGFR del19/T790M/C797S; [11]) | IC50 (EGFR L858R/T790M/C797S; [12]) | IC50 (EGFR del19/C797S; [13]) | IC50 (EGFR L858R/C797S; [14]) | IC50 (EGFR wildtype (WT); [15])
1 | Cn1cc(-c2nccc(Nc3cc(N[C@H]4CC[C@@](C)(O)CC4)c(-c4ccn(C(F)F)n4)cn3)n2)cn1 [Example 139, (1s,4s)-4-((5-(1-(Difluoromethyl)-1H-pyrazol-3-yl)-2-((2-(1-methyl-1H-pyrazol-4-yl)pyrimidin-4-yl)amino)pyridin-4-yl)amino)-1-methylcyclohexan-1-ol] | 1.1 nM | 1.7 nM | 5.2 nM | 0.8 nM | 99.1 nM | 50.2 nM | 165 nM | 57.1 nM | > 10000 nM | 61 nM | – | – | – | – | –
2 | COCn1ccc(-c2cnc(Nc3ccnc(-c4cnn(S(=O)(=O)C5CC5)c4)n3)cc2NC(C)C)n1 [Example 303, N^2-(2-(1-(Cyclopropylsulfonyl)-1H-pyrazol-4-yl)pyrimidin-4-yl)-N^4-isopropyl-5-(1-(methoxymethyl)-1H-pyrazol-3-yl)pyridine-2,4-diamine] | – | 0.6 nM | – | 0.3 nM | – | 2.2 nM | – | 0.2 nM | – | 1.7 nM | – | – | – | – | –
3 | CC(C)(CO)CNc1cc(Nc2ccnc(-c3cnn(S(=O)(=O)C4CC4)c3)n2)ncc1-c1csc(C(C)(C)O)n1 [Example 90, 3-((2-((2-(1-(Cyclopropylsulfonyl)-1H-pyrazol-4-yl)pyrimidin-4-yl)amino)-5-(2-(2-hydroxypropan-2-yl)thiazol-4-yl)pyridin-4-yl)amino)-2,2-dimethylpropan-1-ol] | 2.6 nM | – | 7.1 nM | – | 367 nM | – | 1490 nM | – | > 10000 nM | – | – | – | – | – | –
4 | O=S(=O)(C1CC1)n1cc(-c2nccc(Nc3cc(N[C@H]4CC[C@@H](CN5CCC5)CC4)c(-c4ccn(CC(F)F)n4)cn3)n2)cn1 [Example 247, N^4-((1s,4s)-4-(Azetidin-1-ylmethyl)cyclohexyl)-N^2-(2-(1-(cyclopropylsulfonyl)-1H-pyrazol-4-yl)pyrimidin-4-yl)-5-(1-(2,2-difluoroethyl)-1H-pyrazol-3-yl)pyridine-2,4-diamine] | 0.2 nM | 0.3 nM | 0.1 nM | 0.1 nM | 0.3 nM | 0.2 nM | 0.7 nM | 0.2 nM | 150 nM | 0.7 nM | – | – | – | – | –
5 | C[C@]1(O)CC[C@@H](Nc2cc(Nc3ccnc(-c4ccc(F)nc4)n3)ncc2-c2ccn(C(F)F)n2)CC1 [Example 113, (1s,4s)-4-((5-(1-(Difluoromethyl)-1H-pyrazol-3-yl)-2-((2-(6-fluoropyridin-3-yl)pyrimidin-4-yl)amino)pyridin-4-yl)amino)-1-methylcyclohexan-1-ol] | 17.5 nM | – | 186 nM | – | 606 nM | – | 483 nM | – | > 10000 nM | > 10000 nM | – | – | – | – | –
6 | COc1ccc(-c2nccc(Nc3cc(N[C@H]4CC[C@@](C)(O)CC4)c(-c4ccn(C(F)F)n4)cn3)n2)c(F)n1 [Example 166, (1s,4s)-4-((5-(1-(Difluoromethyl)-1H-pyrazol-3-yl)-2-((2-(2-fluoro-6-methoxypyridin-3-yl)pyrimidin-4-yl)amino)pyridin-4-yl)amino)-1-methylcyclohexan-1-ol] | – | 7.2 nM | – | 3.6 nM | – | 737 nM | – | 198 nM | – | 503 nM | – | – | – | – | –
7 | O=S(=O)(C1CC1)n1cc(-c2nccc(Nc3cc(N[C@H]4CC[C@@H](O)C4)c(-c4ccn(C(F)F)n4)cn3)n2)cn1 [Example 14, (1R,3S)-3-((2-((2-(1-(Cyclopropylsulfonyl)-1H-pyrazol-4-yl)pyrimidin-4-yl)amino)-5-(1-(difluoromethyl)-1H-pyrazol-3-yl)pyridin-4-yl)amino)cyclopentan-1-ol] | 0.6 nM | – | 0.9 nM | – | 4.9 nM | – | 14.2 nM | – | 7510 nM | – | – | – | – | – | –
8 | Cn1ccc(-c2cnc(Nc3ccnc(-c4cnn(S(=O)(=O)C5CC5)c4)n3)cc2N[C@H]2CC[C@@H](NCCF)CC2)n1 [Example 43, N^2-(2-(1-(Cyclopropylsulfonyl)-1H-pyrazol-4-yl)pyrimidin-4-yl)-N^4-((1s,4s)-4-((2-fluoroethyl)amino)cyclohexyl)-5-(1-methyl-1H-pyrazol-3-yl)pyridine-2,4-diamine] | 0.3 nM | 0.2 nM | 0.3 nM | 0.1 nM | – | 0.7 nM | 14.7 nM | 0.4 nM | 5240 nM | 4.9 nM | – | – | – | – | –
9 | O=S(=O)(C1CC1)n1cc(-c2nccc(Nc3cc(N[C@H]4CC[C@@H](O)CC4)c(-c4cnn(C5CC5)c4)cn3)n2)cn1 [Example 78, (1s,4s)-4-((5-(1-Cyclopropyl-1H-pyrazol-4-yl)-2-((2-(1-(cyclopropylsulfonyl)-1H-pyrazol-4-yl)pyrimidin-4-yl)amino)pyridin-4-yl)amino)cyclohexan-1-ol] | 4.8 nM | – | 5.4 nM | – | 38.5 nM | – | 161 nM | – | > 10000 nM | – | – | – | – | – | –
10 | O=S(=O)(C1CC1)n1cc(-c2nccc(Nc3cc(NCC4CCC(O)C4)c(-c4ccn(C(F)F)n4)cn3)n2)cn1 (stereo not shown) [Example 33, 3-(((2-((2-(1-(Cyclopropylsulfonyl)-1H-pyrazol-4-yl)pyrimidin-4-yl)amino)-5-(1-(difluoromethyl)-1H-pyrazol-3-yl)pyridin-4-yl)amino)methyl)cyclopentan-1-ol] | 1 nM | 0.5 nM | 1.4 nM | 0.5 nM | – | 0.5 nM | 13.5 nM | 0.7 nM | > 10000 nM | 7 nM | – | – | – | – | –
11 | C[C@]1(O)CC[C@@H](Nc2cc(Nc3ccnc(-c4cnn(S(=O)(=O)C5CC5)c4)n3)ncc2-n2ccc(C(F)(F)F)n2)CC1 [Example 167, (1s,4s)-4-((2-((2-(1-(Cyclopropylsulfonyl)-1H-pyrazol-4-yl)pyrimidin-4-yl)amino)-5-(3-(trifluoromethyl)-1H-pyrazol-1-yl)pyridin-4-yl)amino)-1-methylcyclohexan-1-ol] | – | 0.6 nM | – | 0.4 nM | – | 58.9 nM | – | 47.7 nM | – | 129 nM | – | – | – | – | –
12 | O=S(=O)(C1CC1)n1cc(-c2nccc(Nc3cc(NC4CCC(F)(F)C4)c(-c4ccn(C(F)F)n4)cn3)n2)cn1 (stereo not shown) [Example 179, N^2-(2-(1-(Cyclopropylsulfonyl)-1H-pyrazol-4-yl)pyrimidin-4-yl)-N^4-(3,3-difluorocyclopentyl)-5-(1-(difluoromethyl)-1H-pyrazol-3-yl)pyridine-2,4-diamine] | – | 3.1 nM | – | 2.1 nM | – | 168 nM | – | 7.4 nM | – | 264 nM | – | – | – | – | –
13 | Cn1nc(-c2cnc(Nc3ccnc(-c4cnn(S(=O)(=O)C5CC5)c4)n3)cc2N[C@H]2CC[C@@](C)(O)CC2)cc1C(F)(F)F [Example 252, (1s,4s)-4-((2-((2-(1-(Cyclopropylsulfonyl)-1H-pyrazol-4-yl)pyrimidin-4-yl)amino)-5-(1-methyl-5-(trifluoromethyl)-1H-pyrazol-3-yl)pyridin-4-yl)amino)-1-methylcyclohexan-1-ol] | 0.7 nM | – | – | 0.8 nM | – | 1.2 nM | 9.8 nM | 4.3 nM | > 10000 nM | 3 nM | – | – | – | – | –
14 | O=S(=O)(C1CC1)n1cc(-c2nccc(Nc3cc(N[C@H]4CC[C@@H](CO)CC4)c(-c4ccn(CC(F)F)n4)cn3)n2)cn1 [Example 244, ((1s,4s)-4-((2-((2-(1-(Cyclopropylsulfonyl)-1H-pyrazol-4-yl)pyrimidin-4-yl)amino)-5-(1-(2,2-difluoroethyl)-1H-pyrazol-3-yl)pyridin-4-yl)amino)cyclohexyl)methanol] | 0.2 nM | 0.3 nM | 0.4 nM | 0.1 nM | 0.5 nM | 0.6 nM | 1.9 nM | 0.5 nM | 975 nM | 2.3 nM | – | – | – | – | –
15 | Cn1nc(-c2cnc(Nc3ccnc(-c4cnn(S(=O)(=O)C5CC5)c4)c3)nc2N[C@H]2CC[C@@H](F)CC2)cc1C(F)(F)F [Example 371, N^2-(2-(1-(Cyclopropylsulfonyl)-1H-pyrazol-4-yl)pyridin-4-yl)-N^4-((1s,4s)-4-fluorocyclohexyl)-5-(1-methyl-5-(trifluoromethyl)-1H-pyrazol-3-yl)pyrimidine-2,4-diamine] | – | – | – | – | – | – | – | – | – | – | 0.9 nM | 1.8 nM | 38.9 nM | 91 nM | 1980 nM
16 | Cc1nn(CC(F)(F)F)cc1-c1nccc(Nc2cc(N[C@H]3CC[C@@](C)(O)CC3)c(-c3cc(C(F)(F)F)n(C)n3)cn2)n1 [Example 332, (1s,4s)-1-Methyl-4-((2-((2-(3-methyl-1-(2,2,2-trifluoroethyl)-1H-pyrazol-4-yl)pyrimidin-4-yl)amino)-5-(1-methyl-5-(trifluoromethyl)-1H-pyrazol-3-yl)pyridin-4-yl)amino)cyclohexan-1-ol] | – | – | – | – | – | – | – | – | – | – | 5.9 nM | 3.2 nM | 10.1 nM | 6 nM | 98 nM
